Literature values, collected in article PMC10664590 (Chemical Science, 2023).

long-wavelength absorption maximum: around 330 nm
fluorescence maximum (in ethanol): around 380 nm
Compound: O=c1ccc2ccc(O)cc2o1 [7-hydroxy-cumarine]
